How the values were obtained:
Assay in all cases: Broth dilution method for determining MIC
Settings in all cases: pH adjusted to about 7, blend as ascorbic acid:ADBAC/DDAC
P. aeruginosa = assay type: cell-based, Pseudomonas aeruginosa
Experimental: (§1) The synergistic activities of different components in a composition (control, conventional comparative, or of the present technology) is determined by the method described by Kull et al. in […], Vol. 9, pages 538-541 (1961), which uses a synergy index to indicates whether synergy exists. A synergy index less than one (<1) indicates synergy; a synergy index of one (1) indicates additivity; a synergy index greater than one (>1) indicates antagonism.
(§2) When applied to Example 1 below, the synergy index of L-ascorbic acid and ADBAC/DDAC can be determined by the following equation:
(§3) Synergy Index=Qa/QA+Qb/QB, […]
(§4) The Minimum Inhibitory Concentration (MIC) of a chemical against a certain bacterium is determined according to the broth dilution method described in National Committee for Clinical Laboratory Standards entitled, “Methods for Dilution Antimicrobial Susceptibility Test for Bacteria that Grow Aerobically” document M7-A2, 2nd ed., 10:8, 1990. […]
(§5) In this example, standard MIC values of ascorbic acid, ADBAC/DDAC, and a 1:1 blend of ascorbic acid and ADBAC/DDAC were determined against E coli, S. aureus, and P. aeruginosa according to the broth dilution method introduced above. […] The synergy index of the 1:1 blend of ascorbic acid and ADBAC/DDAC against each of the biocidal targets was then calculated according to the method as described above.

S. aureus = assay type: cell-based, Staphylococcus aureus
Experimental: as §1, §2, §3, §4, §5

E coli = assay type: cell-based, Escherichia coli
Experimental: as §1, §2, §3, §4, §5

MIC (P. aeruginosa): >10,000 ppm, active | MIC (S. aureus): >10,000 ppm, active | MIC (E coli): >10,000 ppm, active
SMILES: O=C1O[C@H]([C@@H](O)CO)C(O)=C1O [L-Ascorbic Acid]
